Where two headings read alike, the source gives them in different places.
Legend:
[1] = Pharmacokinetics of A-002; conditions: in vivo
stable CVD population = conditions: cited from earlier work
serum hs-CRP = assay: Serum hs-CRP levels in human ACS subjects; format: in vivo
Protocol: (§1) 625 adult (18 years of age or older) unstable human subjects who had recently experienced an index ACS event (UA, NSTEMI, or STEMI) were randomized to receive placebo or A-002 at 500 mg once daily via oral administration in a double-blinded manner. A-002 was delivered in the form of two 250 mg tablets. In addition, all subjects received atorvastatin at 80 mg once daily via oral administration of a single tablet.
(§2) Subjects were randomized within 96 hours of hospital admission for an index ACS event, or within 96 hours of index ACS event diagnosis if already hospitalized. Prior to randomization, subjects were screened for pertinent medical history, and baseline levels of LDL and hs-CRP were measured. Baseline sPLA2 levels were also measured in a random subset of subjects. Percutaneous revascularization, if required or planned for a particular subject, was performed prior to randomization.
(§3) Subjects were excluded if they were receiving statin therapy at maximum recommended or tolerated dosage (i.e., 40-80 mg QD for atorvastatin, fluvastatin, lovastatin, pravastatin, or simvastatin, or 20-40 mg QD rosuvastatin) at the time of the index ACS event. During the trial, subjects were prevented from using any lipid-lowering therapy other than 80 mg atorvastatin and/or A-002.
(§4) For purposes of this study, MACEs included all-cause mortality, non-fatal MI, documented UA requiring urgent hospitalization, revascularization occurring 60 days or more after the initial index ACS event, and non-fatal stroke. Subjects were evaluated at 2, 4, 8, 12, 16, 20, and 24 weeks after randomization and monthly thereafter until study completion. Each evaluation included measurement of serum LDL levels and recordation of any MACEs or less severe adverse events occurring since the previous evaluation. In addition, certain evaluation periods included measurement of one or more of hs-CRP, sPLA2, IL-6, and/or other biomarker levels, vital signs, weight, and/or waist circumference. […] This final evaluation included at least a complete physical examination, a 12-lead ECG reading, measurement of LDL, hs-CRP, sPLA2, and IL-6 levels, and recordation of any MACEs during the study period.

serum sPLA2 = assay: Serum sPLA2 levels in human ACS subjects; format: in vivo; conditions: ITT population
Protocol: as §1, §2, §3, §4

serum IL-6 = assay: Serum IL-6 levels in human ACS subjects; format: in vivo
Protocol: as §1, §2, §3, §4

LDL and CRP levels = assay: Reaching composite target LDL and hs-CRP levels in human ACS subjects; format: in vivo; conditions: ITT population
Protocol: as §1, §2, §3, §4

Human ACS Subjects = assay: Major adverse cardiac events (MACEs) in human ACS subjects; format: in vivo
Protocol: as §1, §2, §3, §4

serum LDL = conditions: for % of subjects with [LDL] < 50 mg/dl / % of subjects with [LDL] < 70 mg/dl / % of subjects with [LDL] < 100 mg/dl / % change in mean [LDL] from baseline / Change in mean [LDL] from baseline: ITT population
[2] = test system: subjects that had recently experienced an ACS event; conditions: 80 mg atorvastatin; subjects that had recently experienced an ACS event (Schwartz 2001); cited from earlier work
[3] = ITT population, cumulative at 16 weeks

## CCc1c(C(=O)C(N)=O)c2c(OCC(=O)OC)cccc2n1Cc1ccccc1 [A-002, [[3-(2-Amino-1,2-dioxoethyl)-2-ethyl-1-(phenylmethyl)-1H-indol-4-yl]oxy]acetic acid methyl ester]
[1]
  absorption and conversion to active molecule: rapidly absorbed and hydrolyzed to the active A-001 molecule
Stable CVD population; once- or twice-daily administration, stable CVD population, diabetic and high baseline LDL-C subpopulations
  effect on cholesterol levels: decreases total cholesterol, LDL-C, total LDL-C particle, and small LDL-C particle levels
Stable CVD population; stable populations
  effect on inflammatory markers: decreases levels of various inflammatory markers such as hs-CRP and sPLA2

## CC(C)c1c(C(=O)Nc2ccccc2)c(-c2ccccc2)c(-c2ccc(F)cc2)n1CC[C@@H](O)C[C@@H](O)CC(=O)O [Placebo (atorvastatin only), atorvastatin]
Serum hs-CRP; ITT population, Week 2
  % change in median [hs-CRP] from baseline: −20.0%
Serum hs-CRP; ITT population, Week 4
  % change in median [hs-CRP] from baseline: −63.5%
Serum hs-CRP; ITT population, Week 8
  % change in median [hs-CRP] from baseline: −71.0%
Serum hs-CRP; ITT population, Week 16
  % change in median [hs-CRP] from baseline: −71.8%
Serum hs-CRP; ITT population, Week 24
  % change in log mean [hs-CRP] from baseline: −77.0%
Serum hs-CRP; diabetes subpopulation, Week 2
  % change in median [hs-CRP] from baseline: −11.0%
Serum hs-CRP; diabetes subpopulation, Week 4
  % change in median [hs-CRP] from baseline: −51.1%
Serum hs-CRP; diabetes subpopulation, Week 8
  % change in median [hs-CRP] from baseline: −67.6%
Serum hs-CRP; diabetes subpopulation, Week 16
  % change in median [hs-CRP] from baseline: −72.4%
Serum hs-CRP; diabetes subpopulation, Week 24
  % change in median [hs-CRP] from baseline: −76.1%
Serum sPLA2; Week 2
  % change in median [sPLA2] from baseline: +5.4%
Serum sPLA2; Week 4
  % change in median [sPLA2] from baseline: −7.0%
Serum sPLA2; Week 8
  % change in median [sPLA2] from baseline: −15.6%
Serum sPLA2; Week 16
  % change in median [sPLA2] from baseline: −12.1%
Serum IL-6; ITT population, Week 2
  % change in median [IL-6] from baseline: −5.2%
Serum IL-6; ITT population, Week 4
  % change in median [IL-6] from baseline: −33.7%
Serum IL-6; ITT population, Week 8
  % change in median [IL-6] from baseline: −38.3%
Serum IL-6; diabetes subpopulation, Week 2
  % change in median [IL-6] from baseline: +3.5%
Serum IL-6; diabetes subpopulation, Week 4
  % change in median [IL-6] from baseline: −23.9%
Serum IL-6; diabetes subpopulation, Week 8
  % change in median [IL-6] from baseline: −40.4%
LDL and CRP levels; Baseline
  % of subjects with mean [LDL] < 70 mg/dl and [hs-CRP] <1 mg/L: 0.4%
  % of subjects with mean [LDL] < 70 mg/dl and [hs-CRP] < 3 mg/L: 1.4%
LDL and CRP levels; Week 2
  % of subjects with mean [LDL] < 70 mg/dl and [hs-CRP] <1 mg/L: 5.6%
  % of subjects with mean [LDL] < 70 mg/dl and [hs-CRP] < 3 mg/L: 16.4%
LDL and CRP levels; Week 4
  % of subjects with mean [LDL] < 70 mg/dl and [hs-CRP] <1 mg/L: 12.8%
  % of subjects with mean [LDL] < 70 mg/dl and [hs-CRP] < 3 mg/L: 30.5%
LDL and CRP levels; Week 8
  % of subjects with mean [LDL] < 70 mg/dl and [hs-CRP] <1 mg/L: 17.5%
  % of subjects with mean [LDL] < 70 mg/dl and [hs-CRP] < 3 mg/L: 36.8%
LDL and CRP levels; Week 16
  % of subjects with mean [LDL] < 70 mg/dl and [hs-CRP] <1 mg/L: 15.6%
  % of subjects with mean [LDL] < 70 mg/dl and [hs-CRP] < 3 mg/L: 32.9%
LDL and CRP levels; Week 24
  % of subjects with mean [LDL] < 70 mg/dl and [hs-CRP] <1 mg/L: 15.9%
  % of subjects with mean [LDL] < 70 mg/dl and [hs-CRP] < 3 mg/L: 34.1%
Human ACS Subjects; ITT population, 0-30 days
  Death (# of events): 4
  MI (# of events): 2
  Stroke (# of events): 0
  Total MACE (# of events): 12
  UA (# of events): 6
Human ACS Subjects; ITT population, 0-60 days
  Death (# of events), cumulative: 4
  MI (# of events), cumulative: 3
  Stroke (# of events), cumulative: 0
  Total MACE (# of events), cumulative: 14
  UA (# of events), cumulative: 7
Human ACS Subjects; ITT population, 0-90 days
  Death (# of events), cumulative: 5
  MI (# of events), cumulative: 3
  Stroke (# of events), cumulative: 1
  Total MACE (# of events), cumulative: 17
  UA (# of events), cumulative: 8
Human ACS Subjects; ITT population, 0-112 days
  Death (# of events), cumulative: 5
  MI (# of events), cumulative: 4
  Stroke (# of events), cumulative: 1
  Total MACE (# of events), cumulative: 19
  UA (# of events), cumulative: 9
Human ACS Subjects; ITT population, 30-60 days
  Death (# of events): 0
  MI (# of events): 1
  Stroke (# of events): 0
  Total MACE (# of events): 2
  UA (# of events): 1
Human ACS Subjects; ITT population, 60-90 days
  Death (# of events): 1
  MI (# of events): 0
  Stroke (# of events): 1
  Total MACE (# of events): 3
  UA (# of events): 1
Human ACS Subjects; ITT population, 90-112 days
  Death (# of events): 0
  MI (# of events): 1
  Stroke (# of events): 0
  Total MACE (# of events): 2
  UA (# of events): 1
Human ACS Subjects; [3]
  Death (% of subjects): 1.6%
  Death (number): 5
  MI (% of subjects): 1.3%
  MI (number): 4
  Revascularization ≧ 60 days (number): 0
  Stroke (% of subjects): 0.3%
  Stroke (number): 1
  Total MACEs (% of subjects): 6.1%
  Total MACEs (number): 19
  UA requiring hospitalization (% of subjects): 2.9%
  UA requiring hospitalization (number): 9
Human ACS Subjects; days 0 to 30
  % of subjects who experienced a MACE: 3.9%
Human ACS Subjects; days 0 to 60
  % of subjects who experienced a MACE: 4.5%
Human ACS Subjects; days 0 to 90
  % of subjects who experienced a MACE: 5.5%
Serum LDL; Baseline
  % of subjects with [LDL] < 50 mg/dl: 1.1%
  % of subjects with [LDL] < 70 mg/dl: 5.2%
  % of subjects with [LDL] < 100 mg/dl: 24.1%
Serum LDL; Week 2
  % change in mean [LDL] from baseline: −41.7%
  % of subjects with [LDL] < 50 mg/dl: 21.9%
  % of subjects with [LDL] < 70 mg/dl: 54.6%
  % of subjects with [LDL] < 100 mg/dl: 89.1%
  Change in mean [LDL] from baseline: -52.5 mg/dL
Serum LDL; Week 4
  % change in mean [LDL] from baseline: −42.3%
  % of subjects with [LDL] < 50 mg/dl: 25.0%
  % of subjects with [LDL] < 70 mg/dl: 54.8%
  % of subjects with [LDL] < 100 mg/dl: 91.2%
  Change in mean [LDL] from baseline: -55.5 mg/dL
Serum LDL; Week 8
  % change in mean [LDL] from baseline: −43.8%
  % of subjects with [LDL] < 50 mg/dl: 22.7%
  % of subjects with [LDL] < 70 mg/dl: 59.9%
  % of subjects with [LDL] < 100 mg/dl: 91.4%
  Change in mean [LDL] from baseline: -56.6 mg/dL
Serum LDL; Week 16
  % change in mean [LDL] from baseline: −36.5%
  % of subjects with [LDL] < 50 mg/dl: 16.8%
  % of subjects with [LDL] < 70 mg/dl: 48.3%
  % of subjects with [LDL] < 100 mg/dl: 82.4%
  Change in mean [LDL] from baseline: -48.1 mg/dL
Serum LDL; Week 24
  % change in mean [LDL] from baseline: −38.2%
  % of subjects with [LDL] < 50 mg/dl: 14.1%
  % of subjects with [LDL] < 70 mg/dl: 50.0%
  % of subjects with [LDL] < 100 mg/dl: 86.5%
  Change in mean [LDL] from baseline: -50.0 mg/dL
Serum LDL; final study visit
  percentage of subjects reaching target LDL levels of 50 mg/dl or less: 16.0%
  percentage of subjects reaching target LDL levels of 70 mg/dl or less: 42.8%
[2]
  absolute reduction in death, non-fatal MI, cardiac arrest with resuscitation, or worsening symptomatic myocardial ischemia: 2.6%
  relative reduction in death, non-fatal MI, cardiac arrest with resuscitation, or worsening symptomatic myocardial ischemia: 16%
